Assay results published in US9670227B2, “Thienopyrimidine derivatives, a process for their preparation and pharmaceutical compositions containing them” (LES LABORATOIRES SERVIER, priority 2013, dated 2017).

Legend:
[1] = target: Mcl-1 protein (UniProtKB primary accession number: Q07820) (Homo sapiens, UniProt Q07820); assay: Inhibition of Mcl-1 by fluorescence polarisation, Method 1; assay type: binding; conditions: fluorescence polarisation test; Method 2 values are underlined in the patent (underlining not visible here); read-out: IC50 (M) Mcl-1 FP
Sequence of Mcl-1 protein (Q07820 whole entry): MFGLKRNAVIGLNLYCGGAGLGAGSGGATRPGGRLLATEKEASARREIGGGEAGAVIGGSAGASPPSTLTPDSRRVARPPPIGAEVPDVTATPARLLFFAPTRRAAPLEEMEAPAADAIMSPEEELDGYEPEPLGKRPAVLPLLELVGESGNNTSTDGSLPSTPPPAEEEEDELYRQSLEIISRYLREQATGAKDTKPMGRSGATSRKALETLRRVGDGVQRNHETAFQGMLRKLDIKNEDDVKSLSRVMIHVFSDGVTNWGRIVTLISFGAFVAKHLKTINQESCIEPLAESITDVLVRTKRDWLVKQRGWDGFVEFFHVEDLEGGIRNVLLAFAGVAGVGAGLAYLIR
Procedure, shortened: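 Fluorescence polarisation competition with an 11-point compound dilution series (final DMSO 5%). Mcl-1 protein at 5 nM and fluorescein-labelled ligand at 1 nM (final) in 10 mM HEPES, 150 mM NaCl, 0.05% Tween 20, pH 7.4.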

[2] = test system: H929 multiple myeloma tumour line; assay: In vitro cytotoxicity, Microculture Tetrazolium Assay; assay type: cell-based; conditions: Homo sapiens, NCI-H929, 48 h, H929 cells, 48 hours exposure, MTT; read-out: IC50 (μM) MTT H929
Protocol: The cytotoxicity studies were carried out on the H929 multiple myeloma tumour line.
The cells are distributed onto microplates and exposed to the test compounds for 48 hours.

IC50 [1] | Compound | IC50 [2]
6.7e-09 M | CCCOc1nccc(COc2ccccc2CC(Oc2ncnc3sc(-c4ccc(F)cc4)c(-c4ccc(OCCN5CCN(C)CC5)c(Cl)c4C)c23)C(=O)O)n1 [Example 61, (2R)-2-{[(5Sa)-5-{3-chloro-2-methyl-4-[2-(4-methylpiperazin-1-yl)ethoxy]phenyl}-6-(4-fluorophenyl)thieno[2,3-d]pyrimidin-4-yl]oxy}-3-{2-[(2-propoxypyrimidin-4-yl)methoxy]phenyl}propanoic acid] | 0.01 µM
4.4e-09 M | CCOCCOc1nccc(COc2ccccc2CC(Oc2ncnc3sc(-c4ccc(F)cc4)c(-c4ccc(OCCN5CCN(C)CC5)c(Cl)c4C)c23)C(=O)O)n1 [Example 64, (2R)-2-{[(5Sa)-5-{3-chloro-2-methyl-4-[2-(4-methylpiperazin-1-yl)ethoxy]phenyl}-6-(4-fluorophenyl)thieno[2,3-d]pyrimidin-4-yl]oxy}-3-(2-{[2-(2-ethoxyethoxy)pyrimidin-4-yl]methoxy}phenyl)propanoic acid] | 0.018 µM
1e-08 M | CSc1nccc(COc2ccccc2CC(Oc2ncnc3sc(-c4ccc(F)cc4)c(-c4ccc(OCCN5CCN(C)CC5)c(Cl)c4C)c23)C(=O)O)n1 [Example 65, (2R)-2-{[(5Sa)-5-{3-chloro-2-methyl-4-[2-(4-methylpiperazin-1-yl)ethoxy]phenyl}-6-(4-fluorophenyl)thieno[2,3-d]pyrimidin-4-yl]oxy}-3-(2-{[2-(methylsulfanyl)pyrimidin-4-yl]methoxy}phenyl)propanoic acid] | 0.043 µM
4.6e-09 M | COCCCSc1nccc(COc2ccccc2CC(Oc2ncnc3sc(-c4ccc(F)cc4)c(-c4ccc(OCCN5CCN(C)CC5)c(Cl)c4C)c23)C(=O)O)n1 [Example 66, (2R)-2-{[(5Sa)-5-{3-chloro-2-methyl-4-[2-(4-methylpiperazin-1-yl)ethoxy]phenyl}-6-(4-fluorophenyl)thieno[2,3-d]pyrimidin-4-yl]oxy}-3-[2-({2-[(3-methoxypropyl)sulfanyl]pyrimidin-4-yl}methoxy)phenyl]propanoic acid] | 0.037 µM
3.4e-09 M | COCCSc1nccc(COc2ccccc2CC(Oc2ncnc3sc(-c4ccc(F)cc4)c(-c4ccc(OCCN5CCN(C)CC5)c(Cl)c4C)c23)C(=O)O)n1 [Example 67, (2R)-2-{[(5Sa)-5-{3-chloro-2-methyl-4-[2-(4-methylpiperazin-1-yl)ethoxy]phenyl}-6-(4-fluorophenyl)thieno[2,3-d]pyrimidin-4-yl]oxy}-3-[2-({2-[(2-methoxyethyl)sulfanyl]pyrimidin-4-yl}methoxy)phenyl]propanoic acid] | 0.03 µM
9.1e-09 M | Cc1c(-c2c(-c3ccc(F)cc3)sc3ncnc(OC(Cc4ccccc4OCc4ccncn4)C(=O)O)c23)ccc(OCCN2CCN(C)CC2)c1Cl [Example 68, (2R)-2-{[(5Sa)-5-{3-chloro-2-methyl-4-[2-(4-methylpiperazin-1-yl)ethoxy]phenyl}-6-(4-fluorophenyl)thieno[2,3-d]pyrimidin-4-yl]oxy}-3-[2-(pyrimidin-4-ylmethoxy)phenyl]propanoic acid] | 0.035 µM
9.3e-09 M | Cc1c(-c2c(-c3ccc(F)cc3)sc3ncnc(OC(Cc4ccccc4OCc4ccnn4C4CCCC4)C(=O)O)c23)ccc(OCCN2CCN(C)CC2)c1Cl [Example 72, (2R)-2-{[(5Sa)-5-{3-chloro-2-methyl-4-[2-(4-methylpiperazin-1-yl)ethoxy]phenyl}-6-(4-fluorophenyl)thieno[2,3-d]pyrimidin-4-yl]oxy}-3-{2-[(1-cyclopentyl-1H-pyrazol-5-yl)methoxy]phenyl}propanoic acid] | 0.04 µM
8.3e-09 M | Cc1c(-c2c(-c3ccc(F)cc3)sc3ncnc(OC(Cc4ccccc4OCc4ccnn4C4CCCCC4)C(=O)O)c23)ccc(OCCN2CCN(C)CC2)c1Cl [Example 73, (2R)-2-{[(5Sa)-5-{3-chloro-2-methyl-4-[2-(4-methylpiperazin-1-yl)ethoxy]phenyl}-6-(4-fluorophenyl)thieno[2,3-d]pyrimidin-4-yl]oxy}-3-{2-[(1-cyclohexyl-1H-pyrazol-5-yl)methoxy]phenyl}propanoic acid] | 0.122 µM
1.6e-08 M | Cc1c(-c2c(-c3ccc(F)cc3)sc3ncnc(OC(Cc4ccccc4OCc4ccnn4-c4ccccc4)C(=O)O)c23)ccc(OCCN2CCN(C)CC2)c1Cl [Example 74, (2R)-2-{[(5Sa)-5-{3-chloro-2-methyl-4-[2-(4-methylpiperazin-1-yl)ethoxy]phenyl}-6-(4-fluorophenyl)thieno[2,3-d]pyrimidin-4-yl]oxy}-3-{2-[(1-phenyl-1H-pyrazol-5-yl)methoxy]phenyl}propanoic acid] | 0.365 µM
4e-09 M | Cc1c(-c2c(-c3ccc(F)cc3)sc3ncnc(OC(Cc4ccccc4OCc4ccnn4C4CCOCC4)C(=O)O)c23)ccc(OCCN2CCN(C)CC2)c1Cl [Example 75, (2R)-2-{[(5Sa)-5-{3-chloro-2-methyl-4-[2-(4-methylpiperazin-1-yl)ethoxy]phenyl}-6-(4-fluorophenyl)thieno[2,3-d]pyrimidin-4-yl]oxy}-3-(2-{[1-(tetrahydro-2H-pyran-4-yl)-1H-pyrazol-5-yl]methoxy}phenyl)propanoic acid] | 0.11 µM
6.6e-09 M | Cc1c(-c2c(-c3ccc(F)cc3)sc3ncnc(OC(Cc4ccccc4OCc4ccnn4CC4CC4)C(=O)O)c23)ccc(OCCN2CCN(C)CC2)c1Cl [Example 78, (2R)-2-{[(5Sa)-5-{3-chloro-2-methyl-4-[2-(4-methylpiperazin-1-yl)ethoxy]phenyl}-6-(4-fluorophenyl)thieno[2,3-d]pyrimidin-4-yl]oxy}-3-(2-{[1-(cyclopropylmethyl)-1H-pyrazol-5-yl]methoxy}phenyl)propanoic acid] | 0.033 µM
1.3e-08 M | COc1ccc(Cn2nccc2COc2ccccc2CC(Oc2ncnc3sc(-c4ccc(F)cc4)c(-c4ccc(OCCN5CCN(C)CC5)c(Cl)c4C)c23)C(=O)O)cc1 [Example 79, (2R)-2-{[(5Sa)-5-{3-chloro-2-methyl-4-[2-(4-methylpiperazin-1-yl)ethoxy]phenyl}-6-(4-fluorophenyl)thieno[2,3-d]pyrimidin-4-yl]oxy}-3-(2-{[1-(4-methoxybenzyl)-1H-pyrazol-5-yl]methoxy}phenyl)propanoic acid] | 0.168 µM
4.5e-09 M | Cc1c(-c2c(-c3ccc(F)cc3)sc3ncnc(OC(Cc4ccccc4OCc4ccnn4CC4CCCCC4)C(=O)O)c23)ccc(OCCN2CCN(C)CC2)c1Cl [Example 80, (2R)-2-{[(5Sa)-5-{3-chloro-2-methyl-4-[2-(4-methylpiperazin-1-yl)ethoxy]phenyl}-6-(4-fluorophenyl)thieno[2,3-d]pyrimidin-4-yl]oxy}-3-(2-{[1-(cyclohexylmethyl)-1H-pyrazol-5-yl]methoxy}phenyl)propanoic acid] | 0.035 µM
7.6e-09 M | CCCn1nccc1COc1ccccc1CC(Oc1ncnc2sc(-c3ccc(F)cc3)c(-c3ccc(OCCN4CCN(C)CC4)c(Cl)c3C)c12)C(=O)O [Example 81, (2R)-2-{[(5Sa)-5-{3-chloro-2-methyl-4-[2-(4-methylpiperazin-1-yl)ethoxy]phenyl}-6-(4-fluorophenyl)thieno[2,3-d]pyrimidin-4-yl]oxy}-3-{2-[(1-propyl-1H-pyrazol-5-yl)methoxy]phenyl}propanoic acid] | 0.034 µM
5.1e-09 M | Cc1c(-c2c(-c3ccc(F)cc3)sc3ncnc(OC(Cc4ccccc4OCc4ccnn4CCC(C)C)C(=O)O)c23)ccc(OCCN2CCN(C)CC2)c1Cl [Example 82, (2R)-2-{[(5Sa)-5-{3-chloro-2-methyl-4-[2-(4-methylpiperazin-1-yl)ethoxy]phenyl}-6-(4-fluorophenyl)thieno[2,3-d]pyrimidin-4-yl]oxy}-3-(2-{[1-(3-methylbutyl)-1H-pyrazol-5-yl]methoxy}phenyl)propanoic acid] | 0.078 µM
3.8e-09 M | Cc1c(-c2c(-c3ccc(F)cc3)sc3ncnc(OC(Cc4ccccc4OCc4ccnn4CCCC(F)(F)F)C(=O)O)c23)ccc(OCCN2CCN(C)CC2)c1Cl [Example 84, (2R)-2-{[(5Sa)-5-{3-chloro-2-methyl-4-[2-(4-methylpiperazin-1-yl)ethoxy]phenyl}-6-(4-fluorophenyl)thieno[2,3-d]pyrimidin-4-yl]oxy}-3-(2-{[1-(4,4,4-trifluorobutyl)-1H-pyrazol-5-yl]methoxy}phenyl)propanoic acid] | 0.018 µM
3.6e-09 M | CCCCCn1nccc1COc1ccccc1CC(Oc1ncnc2sc(-c3ccc(F)cc3)c(-c3ccc(OCCN4CCN(C)CC4)c(Cl)c3C)c12)C(=O)O [Example 85, (2R)-2-{[(5Sa)-5-{3-chloro-2-methyl-4-[2-(4-methylpiperazin-1-yl)ethoxy]phenyl}-6-(4-fluorophenyl)thieno[2,3-d]pyrimidin-4-yl]oxy}-3-{2-[(1-pentyl-1H-pyrazol-5-yl)methoxy]phenyl}propanoic acid] | 0.063 µM
2.9e-09 M | COCCCn1nccc1COc1ccccc1CC(Oc1ncnc2sc(-c3ccc(F)cc3)c(-c3ccc(OCCN4CCN(C)CC4)c(Cl)c3C)c12)C(=O)O [Example 86, (2R)-2-{[(5Sa)-5-{3-chloro-2-methyl-4-[2-(4-methylpiperazin-1-yl)ethoxy]phenyl}-6-(4-fluorophenyl)thieno[2,3-d]pyrimidin-4-yl]oxy}-3-(2-{[1-(3-methoxypropyl)-1H-pyrazol-5-yl]methoxy}phenyl)propanoic acid] | 0.063 µM
